According to patent US20090118314A1, “TUMOR SUPPRESSOR” (JAPAN AS REPRESENTED BY DIRECTOR GENERAL OF AGENCY CENTER, priority 2006, published 2009):

Key:
Min mice = experiment: Cancer suppression test (intestinal polyp development) in Min mice; type: in vivo; settings: male Min mice, 100 ppm in feed, sacrificed at 15 weeks old
Description: That is to say, the inventors used, as a test system, familial adenomatous polyposis (FAP) model mice (Apc gene hetero-deficient mice) belonging to a high risk group of large intestinal cancer. These model mice have two characteristics. […] Thus, this mouse can be used as an experimental animal model useful for examining the relationship between a hyperlipidemia condition and large intestinal cancer. In this test, based on the fact that expression of PAI-1 was increased in the polyps of FAP patients and that expression of PAI-1 was induced by triglyceride, the action of suppressing the development of intestinal polyps of a PAI-1-inhibiting compound was evaluated using Min mice that were one type of Apc gene-deficient mice.
5-week-old male Min mice (CLEA Japan, Inc.) were purchased. After giving a basic feed (AIN-76A) to the mice for 1 week, 100 ppm of a test substance was mixed into the feed, and the mixed feed was then given to the mice. On the other hand, in the case of wild-type mice also, the same amount of the test substance was mixed into the feed, and the mixed feed was then given to the wild-type mice. The body weight and the feed intake were measured every week. The mice were sacrificed under anesthesia, when they were 15 weeks old. Then, the weights of main organs (spleen and heart) were measured. Small intestine and large intestine were washed and were then excised in a longitudinal direction, followed by fixing with formalin. The number of intestinal polyps in the small intestine and large intestine were counted and the size thereof were measured under a stereoscopic microscope.

PAI-1 = PAI-1 (Homo sapiens, UniProt P05121); experiment: PAI-1 inhibitory activity using synthetic substrate S-2288; type: biochemical
PAI-1, sequence (P05121 24-402, species assumed): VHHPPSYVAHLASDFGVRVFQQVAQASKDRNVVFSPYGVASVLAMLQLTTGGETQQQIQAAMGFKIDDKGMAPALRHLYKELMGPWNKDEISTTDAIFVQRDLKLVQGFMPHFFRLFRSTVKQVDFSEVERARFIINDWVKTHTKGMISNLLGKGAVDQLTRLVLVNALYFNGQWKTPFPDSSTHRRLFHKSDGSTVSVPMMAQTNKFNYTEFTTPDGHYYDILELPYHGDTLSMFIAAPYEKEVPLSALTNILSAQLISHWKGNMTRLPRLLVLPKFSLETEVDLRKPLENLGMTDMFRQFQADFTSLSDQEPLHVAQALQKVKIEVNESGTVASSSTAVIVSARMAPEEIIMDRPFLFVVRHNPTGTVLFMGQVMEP
Description: PAI-1 inhibitory activity can be measured using a synthetic substrate S-2288 according to the methods described in International Publication WO04/011442 pamphlet, International Publication WO04/10996 pamphlet, JP-A-2004-250401, etc.

`CC(C)(C)c1ccc2oc(-c3ccc4cc(OCCCCCC(C(=O)O)C(=O)O)ccc4c3)nc2c1` [Compound No. 20, [5-[[6-[5-(1,1-dimethylethyl)-2-benzoxazolyl]-2-naphthalenyl]oxy]pentyl]propanedioic acid] was tested, and the “development of intestinal polyps in the proximal portion of small intestine” value (Min mice) was “suppressed particularly strongly”, the “distribution of the polyp size” value (Min mice) was “a decrease in the size was observed overall” and the “polyps with a diameter size of 1 mm or less” value (Min mice) was “significantly decreased”. For the same compound, the “weight of heart (indicator of anemia caused by bleeding associated with intestinal polyps)” value (Min mice) was “significantly reduced”, the “weight of spleen (indicator of anemia caused by bleeding associated with intestinal polyps)” value (Min mice) was “significantly reduced” and the “total number of polyps per mouse, decreased to” value (Min mice; small and large intestine) was “approximately 66%”. It also gave an IC50 (PAI-1) of 440 nM.

With `O=C(O)C(CCCOc1ccc2cc(-c3nc4cc(-c5ccccc5)ccc4o3)ccc2c1)C(=O)O` [compound 13, [3-[[6-(5-phenyl-2-benzoxazolyl)-2-naphthalenyl]oxy]propyl]propanedioic acid] the IC50 (PAI-1) was 540 nM.

`O=C(O)C(CCCCCOc1ccc2cc(-c3nc(-c4ccccc4)c(-c4ccccc4)o3)ccc2c1)C(=O)O` [compound 6, [5-[[6-(4,5-diphenyl-2-oxazolyl)-2-naphthalenyl]oxy]pentyl]propanedioic acid] was tested, and the IC50 (PAI-1) was 940 nM.

For `O=C(O)C(CCCCCOc1ccc2cc(-c3nc(OCc4ccccc4)cc(-c4ccccc4)n3)ccc2c1)C(=O)O` [compound 47, [5-[[6-[4-phenyl-6-(phenylmethoxy)-2-pyrimidinyl]-2-naphthalenyl]oxy]pentyl]propanedioic acid], the IC50 (PAI-1) was 350 nM.

`O=C(O)C(CCCCCOc1ccc2cc(-c3nc4ccc(OCC5CCCCC5)cc4o3)ccc2c1)C(=O)O` [compound 23, [5-[[6-[6-(cyclohexylmethoxy)-2-benzoxazolyl]-2-naphthalenyl]oxy]pentyl]propanedioic acid] showed an IC50 (PAI-1) of 390 nM.

Work on `CC(C)(C)c1cc(OCc2ccc(F)cc2)nc(-c2ccc3cc(OCCCCCC(C(=O)O)C(=O)O)ccc3c2)n1` [compound 49, [5-[[6-[4-(1,1-dimethylethyl)-6-[(4-fluorophenyl)methoxy]-2-pyrimidinyl]-2-naphthalenyl]oxy]pentyl]propanedioic acid] yielded an IC50 (PAI-1) of 290 nM.

`CC(C)(C)c1cc(OCc2ccccc2Cl)nc(-c2ccc3cc(OCCCCCC(C(=O)O)C(=O)O)ccc3c2)n1` [compound 50, [5-[[6-[4-[(2-chlorophenyl)methoxy]-6-(1,1-dimethylethyl)-2-pyrimidinyl]-2-naphthalenyl]oxy]pentyl]propanedioic acid] was tested, and the IC50 (PAI-1) was 220 nM.

For `O=C(O)C(CCCCCOc1ccc2cc(-c3nc4ccc(OCc5ccccc5)cc4o3)ccc2c1)C(=O)O` [compound 24, [5-[[6-[6-(phenylmethoxy)-2-benzoxazolyl]-2-naphthalenyl]oxy]pentyl]propanedioic acid], the IC50 (PAI-1) was 540 nM.

For `Cc1ccc(-c2nc(-c3ccc4cc(OCCCCCC(C(=O)O)C(=O)O)ccc4c3)oc2-c2ccc(C)cc2)cc1` [compound 7, [5-[[6-[4,5-bis(4-methylphenyl)-2-oxazolyl]-2-naphthalenyl]oxy]pentyl]propanedioic acid], the IC50 (PAI-1) was 590 nM.

`COc1ccc(-c2cc(OCc3ccccc3F)nc(-c3ccc4cc(OCCCC(C(=O)O)C(=O)O)ccc4c3)n2)cc1` [compound 43, [3-[[6-[4-[(2-fluorophenyl)methoxy]-6-(4-methoxyphenyl)-2-pyrimidinyl]-2-naphthalenyl]oxy]propyl]propanedioic acid] showed an IC50 (PAI-1) of 860 nM.

`CC(C)(C)c1cc(OCC2CCCCC2)nc(-c2ccc3cc(OCCCCCC(C(=O)O)C(=O)O)ccc3c2)n1` [compound 48, [5-[[6-[4-cyclohexylmethoxy-6-(1,1-dimethylethyl)-2-pyrimidinyl]-2-naphthalenyl]oxy]pentyl]propanedioic acid] was tested, and the IC50 (PAI-1) was 320 nM.
